Key:
[1] = tested on: Aurora-A in U251 and RPE1 cells; experiment: Western blot, total Aurora-A protein level; format: cell-based, Homo sapiens; settings: mitotic U251 and RPE1 lysates, siRNA 48 h
Experimental: Cells were lysed on ice for 30 min in lysis buffer (50 mM tris pH 8.0, 300 mM NaCl, 0.2%(v/v) NP-40, 10%(v/v) glycerol, protease inhibitor cocktail C, phosphatase inhibitor cocktail 3 (Sigma, 1:200 dilution), 100 nM okadaic acid (Enzo, ALX-350-003-C100)). Lysates were then centrifuged at 14,000 × g, 15 min, 4 °C, the supernatants were transferred to a fresh tube, and the pellet was discarded. Protein concentrations were measured by Bradford assay using Protein Assay Dye Reagent Concentrate (Bio-Rad Laboratories, 5000006). NuPage LDS sample buffer, supplemented with NuPAGE sample reducing agent (Invitrogen) were added prior to boiling for 10 min at 90 °C. Equal amounts of protein, between 8–20 µg/lane, were loaded into pre-cast 4–12% Bis-Tris gels (Invitrogen, NP0322BOX) and proteins separated in 1x MOPS buffer (Invitrogen) and transferred to nitrocellulose membrane (0.45 µM). Nitrocellulose was then blocked in 5% milk (wt/v) in TBS, 0.1% Tween (v/v) (TBST) for 1 h. Primary and secondary antibodies were diluted in 5% milk, TBST and incubated overnight at 4 °C or for 1 h at room temperature, respectively. Species-specific secondary antibodies conjugated to horseradish peroxidase (HRP) were used (anti-Mouse, Cytiva NA931V; anti-Rabbit, Cytiva NA934; anti-Sheep, Jackson 713-035-003). Membranes were washed for 1 h in TBST, changing the buffer five times, after each antibody incubation. […]

γ-tubulin in RPE1 cells = experiment: Immunofluorescence, γ-tubulin centrosomal signal intensity, RPE1; format: cell-based, Homo sapiens; settings: RPE1 p53-/-, Aurora-A inhibitor 30 min
Experimental: As noted in the figures, the following drugs were incubated with cells for 30 min at 37 °C: Aurora-B-i ZM447439 2 µM [10 mM], PLK1-I BI2536 1 µM [10 mM] and Aurora-A-i MLN8237 [5 mM] was used at 250 and 500 nM in U251 and RPE1 cells, respectively. Drugs were resuspended in DMSO to the stock concentrations indicated in square brackets. BI2536 (HY-50698), MLN8237 (HY-10971) and ZM447439 (HY-10128) were all purchased from MedChemExpress. For western blotting, a 20-min pre-treatment with proteasome inhibitor (20 µM MG-132, MerckMillipore, 47490 [20 mM]) was required prior to the addition of DMSO control or kinase inhibitors. This prevented mitotic exit as a consequence of checkpoint override following Aurora-A and Aurora-B inhibitor addition.
For siRNA depletion, 1 × 10^5 cells were seeded in six-well plates and transfected as described above for 48 h prior to fixation. For all other experiments, 2.5 × 10^5 cells were seeded in six-well plates and grown for 24 h before fixation. All cells were grown on 12 mm diameter glass coverslips (VWR, 631–1577). […]
For CEP192, LATS2-pS83, PCNT, PLK1 and γ-tubulin intensity, a 20-pixel diameter circle was centred over each centrosome and the intensity measured. […]

Compound | total Aurora-A protein levels [1] | centrosomal γ-tubulin (γ-tubulin in RPE1 cells)
5′-CGGUAGUGAUAAAAGCUCAtt-3′ [siTPX2] | decreased total Aurora-A protein levels | 
COc1cc(Nc2ncc3c(n2)-c2ccc(Cl)cc2C(c2c(F)cccc2OC)=NC3)ccc1C(=O)O [Alisertib] |  | significant drop in centrosomal γ-tubulin
